As usually defined, the melting point is the temperature, or range, at which the solid turns liquid.

Where a name gives a salt, the structure may show the parent alone.

For the compound `Cc1nc(C)c(-c2[nH]nc3c2C(=O)c2c(NC(=O)NN4CCOCC4)cccc2-3)s1` (as salt: TFA) [Example 2, 3-(2,4-dimethylthiazol-5-yl)-5-(morpholinocarbamoylamino)indeno[1,2-c]pyrazol-4-one], the melting point was greater than 300 °C. The figure for `Cc1nc(C)c(-c2[nH]nc3c2C(=O)c2c(NC(=O)NN4CCN(C)CC4)cccc2-3)s1` (as salt: hydrochloride) is 278 °C.

The record behind these values is patent US6706718B2, “3-(2,4-dimethylthiazol-5-yl)indeno[1,2-c]pyrazol-4-one derivatives and their uses” (Bristol-Myers Squibb Company, priority 2000, dated 2004).
